Here are results for 13 molecules from ChEMBL document CHEMBL3045010, “Radical scavenging capacities of some thiazolylthiazolidine-2,4-dione derivatives” (Med Chem Res, 2009).

Assay type in all cases: functional
The subject of assay [1] is Radical scavenging activity. In words: Antioxidant activity against assessed as DPPH radical scavenging activity at 10 '-4 M after 30 min by spectrophotometry relative to control. A general note: The DPPH test is a chemical assay of radical scavenging.
Assay [2] in a line: Antioxidant activity against assessed as superoxide scavenging activity measuring reduction of cytochrome C at 10 '-3 M by spectrophotometry relative to control. Also on record: scale not given: the % may be the effect or the level left.
The test system of assay [3] is Radical scavenging activity. Kind of assay: Antioxidant activity against assessed as DPPH radical scavenging activity at 10 '-3 M after 30 min by spectrophotometry relative to control.
The nature of assay [4]: Antioxidant activity against assessed as superoxide scavenging activity measuring reduction of cytochrome C at 10 '-4 M by spectrophotometry relative to control. Also on record: scale not given: the % may be the effect or the level left.
Assay [5] relates to Radical scavenging activity. In words: Antioxidant activity against assessed as DPPH radical scavenging activity at 1.25 x 10 '-4 M after 30 min by spectrophotometry relative to control.
The test system of assay [6] is Radical scavenging activity. Kind of assay: Antioxidant activity against assessed as DPPH radical scavenging activity at 2 x 10 '-4 M after 30 min by spectrophotometry relative to control.

Molecules are shown by their SMILES.

With `O=C1S/C(=C\c2sc(SCc3ccccc3)nc2Cl)C(=O)N1Cc1ccc([N+](=O)[O-])cc1`, the Activity worked out at 43% in assay [1], 11% in assay [2], 14% in assay [3] and 96% in assay [4].
As to `O=C1S/C(=C\c2sc(SCc3ccccc3)nc2Cl)C(=O)N1Cc1ccccc1`, the Activity is 77% in assay [1], 50% in assay [2], 26% in assay [3] and 86% in assay [4].
For `O=C1S/C(=C\c2sc(SCc3ccccc3)nc2Cl)C(=O)N1Cc1ccc(F)cc1`, in that order: 67%, 52%, 21% and 98%.
For `O=C1S/C(=C\c2sc(Cl)nc2Cl)C(=O)N1Cc1ccccc1`, in that order: 47%, 154%, 12% and 352%.
For `O=C1S/C(=C\c2sc(SCc3ccccc3)nc2Cl)C(=O)N1Cc1ccc(Br)cc1`, in that order: 74%, 35%, 19% and 88%.
Take `Cc1cc(C(C)(C)C)c(O)c(C(C)(C)C)c1`: the figures for the Activity in assay [5], in assay [6] and in assay [3] were 52%, 37% and 17%, respectively.
`O=C1S/C(=C\c2sc(Cl)nc2Cl)C(=O)N1Cc1ccc(Cl)cc1Cl`: the Activity came out at 12% in assay [1], 99% in assay [2], 9% in assay [3] and 110% in assay [4].
For `O=C1S/C(=C\c2sc(SCc3ccccc3)nc2Cl)C(=O)N1Cc1ccc(Cl)cc1Cl`, in that order: 58%, 16%, 20% and 101%.
For `O=C1S/C(=C\c2sc(Cl)nc2Cl)C(=O)N1Cc1ccc(Br)cc1`, in that order: 28%, 124%, 9% and 127%.
For `O=C1S/C(=C\c2sc(Cl)nc2Cl)C(=O)N1Cc1ccc([N+](=O)[O-])cc1`, in that order: 52%, 339%, 9% and 114%.
As for `O=C1S/C(=C\c2sc(Cl)nc2Cl)C(=O)N1Cc1ccc(F)cc1`, the Activity in assay [1] is 28%; in assay [2], 73%; in assay [3], 11%; in assay [4], 129%.
For `O=C1S/C(=C\c2sc(Cl)nc2Cl)C(=O)N1Cc1ccc(Cl)cc1`, in that order: 73%, 9%, 57% and 32%.
For `O=C1S/C(=C\c2sc(SCc3ccccc3)nc2Cl)C(=O)N1Cc1ccc(Cl)cc1`, in that order: 72%, 31%, 20% and 91%.
